Measurements from patent US12486254B2, “Uracil derivatives for stimulating read-through of premature termination codons” (Southern Research Institute, priority 2022, dated 2025).
Values joined by “and” are separate entries in the source; they are usually repeats but may differ in a detail not shown here. Equal entries are not always repeated.

Each compound was assayed on G542X#10-HBE5x5 (assay: Read-through of a premature termination codon, G542X#10-HBE5x5 (Table 3)). Conditions: with G418.
Format: cell-based
Description: (§1) The compounds shown in Table 1 were evaluated for their ability to stimulate read-through of a premature termination codon, and their respective activities are shown in Tables 2 and 3 below.

| Compound | EC50 |
| --- | --- |
| CCn1c(=O)c(C(=O)CN(C)Cc2ccc(C(=O)NC)cc2)c(N)n(Cc2ccccc2)c1=O [1.2] | ≥ 100 µM |
| CCOC(=O)C1CCN(CC(=O)c2c(N)n(Cc3ccccc3)c(=O)n(CC)c2=O)CC1 [1.6] | ≥ 100 µM |
| CCn1c(=O)c(C(=O)CNC2CCOCC2)c(N)n(Cc2ccccc2)c1=O [1.10] | ≥ 100 µM |
| CCn1c(=O)c(C(=O)CN2CCOCC2)c(N)n(Cc2ccccc2)c1=O [1.11] | ≥ 100 µM |
| CCn1c(=O)c(C(=O)CN[C@H](C(=O)OC)C(C)C)c(N)n(Cc2ccccc2)c1=O [1.15] | ≥ 100 µM |
| CCn1c(=O)c(C(=O)CN[C@@H](Cc2cnc[nH]2)C(=O)OC)c(N)n(Cc2ccccc2)c1=O [1.17] | ≥ 100 µM |
| CCOC(=O)CN(CC(=O)c1c(N)n(Cc2ccccc2)c(=O)n(CC)c1=O)C(C)C [1.18, ethyl 2-((2-(6-amino-1-benzyl-3-ethyl-2,4-dioxo-1,2,3,4-tetrahydropyrimidin-5-yl)-2-oxoethyl)(isopropyl)amino)acetate] | ≥ 100 µM |
| CCn1c(=O)c(C(=O)CN(C)C(C)C)c(N)n(Cc2ccccc2)c1=O [1.20] | ≥ 100 µM |
| CCn1c(=O)c(C(=O)CN2CCC[C@H]2C(=O)OC)c(N)n(Cc2ccccc2)c1=O [1.23] | ≥ 100 µM |
| CCn1c(=O)c(C(=O)CN(CC(N)=O)C2CC2)c(N)n(Cc2ccccc2)c1=O [1.35] | ≥ 100 µM |
| CCn1c(=O)c(C(=O)CN(CC(=O)NC)C(C)C)c(N)n(Cc2ccccc2)c1=O [1.39] | ≥ 100 µM |
| CCn1c(=O)c(C(=O)CN(CC(=O)N(C)C)C(C)C)c(N)n(Cc2ccccc2)c1=O [1.40] | ≥ 100 µM |
| CCCNC(=O)CN(C)CC(=O)c1c(N)n(Cc2ccccc2)c(=O)n(C)c1=O [1.42] | ≥ 100 µM |
| CCn1c(=O)c(C(=O)CN2CCCCC2C(N)=O)c(N)n(Cc2ccccc2)c1=O (stereo not shown) [1.48] | ≥ 100 µM |
| NC(=O)C1CCCCN1CC(=O)c1c(N)n(Cc2ccccc2)c(=O)n(Cc2ccccc2)c1=O (stereo not shown) [1.50] | 30 µM |
| NC(=O)C1CCCCN1CC(=O)c1c(N)n(Cc2ccccc2)c(=O)n(C2CCCCC2)c1=O (stereo not shown) [1.51] | ≥ 100 µM |
| NC(=O)C1CCCCN1CC(=O)c1c(N)n(-c2ccc(F)cc2)c(=O)n(Cc2ccccc2)c1=O (stereo not shown) [1.65] | ≥ 100 µM |
| CCN(CC)C(=O)C1CCCN(CC(=O)c2c(N)n(Cc3ccccc3)c(=O)n(CC)c2=O)C1 (stereo not shown) [1.66] | ≥ 100 µM |
| CCn1c(=O)c(C(=O)CN2CCCCC2C(=O)N(C)C)c(N)n(Cc2ccccc2)c1=O (stereo not shown) [1.67] | ≥ 100 µM |
| CN(C)C(=O)C1CCCCN1CC(=O)c1c(N)n(Cc2ccc(F)cc2)c(=O)n(Cc2ccc(F)cc2)c1=O (stereo not shown) [1.73] | 62.9 µM |
| CC(C)N(CC(=O)c1c(N)n(Cc2ccc(F)cc2)c(=O)n(Cc2ccc(F)cc2)c1=O)CC(=O)N(C)C [1.74] | ≥ 100 µM |
| CCn1c(=O)c(C(=O)CN2CCCCC2C(=O)N2CCOCC2)c(N)n(Cc2ccccc2)c1=O (stereo not shown) [1.87] | ≥ 100 µM |
| CCn1c(=O)c(C(=O)CN2CCCCC2C(N)=O)c(N)n(Cc2ccc(F)cc2)c1=O (stereo not shown) [1.103] | ≥ 100 µM |
| NC(=O)C1CCCCN1CC(=O)c1c(N)n(Cc2cccc(Cl)c2)c(=O)n(Cc2cccc(Cl)c2)c1=O (stereo not shown) [1.104] | 25 µM |
| CCn1c(=O)c(C(=O)CN2CCCCC2c2nc3ccccc3n2C)c(N)n(Cc2ccccc2)c1=O (stereo not shown) [1.105] | ≥ 100 µM |
| CCn1c(=O)c(C(=O)CN2CCCCC2c2nc3ccccc3[nH]2)c(N)n(Cc2ccccc2)c1=O (stereo not shown) [1.106] | ≥ 100 µM |
| CCn1c(=O)c(C(=O)CN2CCCC[C@@H]2C(N)=O)c(N)n([C@H](C)c2ccccc2)c1=O [1.125] | ≥ 100 µM |
| CCn1c(=O)c(C(=O)CN2CCCC[C@@H]2C(=O)N(C)C)c(N)n(Cc2ccc(F)cc2)c1=O [1.126] | ≥ 100 µM |

| Compound | EC50 |
| --- | --- |
| CCn1c(=O)c(C(=O)CN2CCCC[C@@H]2C(=O)N2CCCCC2)c(N)n(Cc2ccc(F)cc2)c1=O [1.129] | ≥ 100 µM |
| CCn1c(=O)c(C(=O)CN2CCCC[C@@H]2C(=O)N2CCOCC2)c(N)n(Cc2ccc(F)cc2)c1=O [1.130] | ≥ 100 µM |
| CCn1c(=O)c(C(=O)CN(CC(N)=O)C(C)C)c(N)n(Cc2ccc(F)cc2)c1=O [1.133] | 50.5 µM |
| CCn1c(=O)c(C(=O)CN(CC(=O)N(C)C)C(C)C)c(N)n(Cc2ccc(F)cc2)c1=O [1.139] | ≥ 100 µM |
| CCn1c(=O)c(C(=O)CN2CCCCC2C(N)=O)c(N)n(Cc2ccc(F)c(OC)c2)c1=O (stereo not shown) [1.164] | ≥ 100 µM |
| CCn1c(=O)c(C(=O)CN2CCCC[C@@H]2C(=O)N2CCC(F)(F)CC2)c(N)n(Cc2ccc(F)cc2)c1=O [1.168] | ≥ 100 µM |
| CCn1c(=O)c(C(=O)CN2CCCC[C@@H]2C(=O)NCC2CC2)c(N)n(Cc2ccc(F)cc2)c1=O [1.174] | ≥ 100 µM |
| CCn1c(=O)c(C(=O)CNC(COC)c2ccccc2)c(N)n(Cc2ccc(F)cc2)c1=O (stereo not shown) [1.180] | 73.2 µM |
| CCn1c(=O)c(C(=O)CNC(CN2CCCC2=O)c2ccccc2)c(N)n(Cc2ccc(F)cc2)c1=O (stereo not shown) [1.181] | ≥ 100 µM |
| CCn1c(=O)c(C(=O)CN[C@H](C(N)=O)C(C)C)c(N)n(Cc2ccc(F)cc2)c1=O [1.187] | ≥ 100 µM |
| CCn1c(=O)c(C(=O)CN(C)C)c(N)n(Cc2cc(Cl)c(F)cc2F)c1=O [1.198] | ≥ 100 µM |
| CCn1c(=O)c(C(=O)CNCCC(N)=O)c(N)n(Cc2ccc(F)cc2)c1=O [1.201] | ≥ 100 µM |
| CCn1c(=O)c(C(=O)CN2CCNC(=O)C2)c(N)n(Cc2ccc(F)cc2)c1=O [1.209] | ≥ 100 µM |
| CCn1c(=O)c(C(=O)CN2CCCNC2=O)c(N)n(Cc2ccc(F)cc2)c1=O [1.212] | ≥ 100 µM |
| CCn1c(=O)c(C(=O)CN2CCCN(C)C2=O)c(N)n(Cc2ccc(F)cc2)c1=O [1.215] | ≥ 100 µM |
| CCn1c(=O)c(C(=O)CN2CCN(C)C(=O)C2)c(N)n(Cc2ccc(F)cc2)c1=O [1.216] | ≥ 100 µM |
| CCn1c(=O)c(C(=O)CN2CCCC[C@@H]2C(N)=O)c(N)n(Cc2ccc(O)cc2)c1=O [1.217] | ≥ 100 µM |
| NC(=O)[C@H]1CCCCN1CC(=O)c1c(N)n(Cc2ccc(F)cc2)c(=O)n(CC2CC2)c1=O [1.218] | ≥ 100 µM |
| CCn1c(=O)c(C(=O)CN(c2cccc(C(N)=O)c2)C(C)C)c(N)n(Cc2ccc(F)cc2)c1=O [1.219] | 48.5 µM |
| CCn1c(=O)c(C(=O)CN2CCc3cccc(C(=O)OC)c3C2)c(N)n(Cc2ccc(F)cc2)c1=O [1.220] | ≥ 100 µM |
| CCn1c(=O)c(C(=O)CN2CCC(O)CC2C(N)=O)c(N)n(Cc2ccc(F)cc2)c1=O (stereo not shown) [1.221] | ≥ 100 µM |
| CCn1c(=O)c(C(=O)CN2CCc3cccc(C(N)=O)c3C2)c(N)n(Cc2ccc(F)cc2)c1=O [1.222] | ≥ 100 µM |
| CCn1c(=O)c(C(=O)CN2CCCc3c(C(N)=O)cccc32)c(N)n(Cc2ccc(F)cc2)c1=O [1.223] | ≥ 100 µM |
| CCn1c(=O)c(C(=O)CN2CCCc3ccc(C(N)=O)cc32)c(N)n(Cc2ccc(F)cc2)c1=O [1.224] | ≥ 100 µM |
| CCn1c(=O)c(C(=O)CNC2CCC(=O)NC2=O)c(N)n(Cc2ccc(F)cc2)c1=O (stereo not shown) [1.226] | ≥ 100 µM |
| CCn1c(=O)c(C(=O)CNc2ccc(C)cc2)c(N)n(Cc2ccc(F)cc2)c1=O [1.227] | ≥ 100 µM |
| NC(=O)C1CCCCN1CC(=O)c1c(N)n(Cc2ccc(F)cc2)c(=O)n(CCC(=O)O)c1=O (stereo not shown) [1.228] | ≥ 100 µM |

Now from value to compound:

| EC50 | Compound |
| --- | --- |
| ≥ 30 µM | CCn1c(=O)c(C(=O)CN2CCCC[C@H]2C(N)=O)c(N)n(Cc2ccc(F)cc2)c1=O [2.1] |
| ≥ 30 µM | CCn1c(=O)c(C(=O)CN2CCCC[C@@H]2C(=O)OC)c(N)n(Cc2ccc(F)cc2)c1=O [2.2] |
| ≥ 30 µM | CCn1c(=O)c(C(=O)CN2CCCC[C@@H]2C(N)=O)c(N)n(Cc2ccccc2F)c1=O [2.3] |
| ≥ 30 µM | CCN(CC)C(=O)[C@H]1CCCCN1CC(=O)c1c(N)n(Cc2ccc(F)cc2)c(=O)n(CC)c1=O [2.4] |
| ≥ 30 µM | CCn1c(=O)c(C(=O)CN2CCCC[C@@H]2C(=O)N2CCCC2)c(N)n(Cc2ccc(F)cc2)c1=O [2.5] |
| ≥ 30 µM | CCn1c(=O)c(C(=O)CN2CCCC[C@@H]2C(=O)NC)c(N)n(Cc2ccc(F)cc2)c1=O [2.6] |
| ≥ 30 µM | CCn1c(=O)c(C(=O)CN2CCCC[C@@H]2C(N)=O)c(N)n(CCc2ccc(F)cc2)c1=O [2.7] |
| ≥ 30 µM | CCn1c(=O)c(C(=O)CN2CCCC[C@@H]2C(N)=O)c(N)n(Cc2cccc(C)n2)c1=O [2.8] |
| ≥ 30 µM | CCn1c(=O)c(C(=O)CN2CCCC[C@@H]2C(N)=O)c(N)n(Cc2cccc(F)c2)c1=O [2.10] |
| ≥ 30 µM and 18.2 µM | CCn1c(=O)c(C(=O)CN2CCCC[C@@H]2C(N)=O)c(N)n(Cc2ccc(F)cc2F)c1=O [2.11] |
| ≥ 30 µM | CCn1c(=O)c(C(=O)CN2CCCC[C@@H]2C(N)=O)c(N)n(Cc2ccc(C(F)F)cc2)c1=O [2.12] |
| ≥ 30 µM | CC(C)n1c(=O)c(C(=O)CN2CCCC[C@@H]2C(N)=O)c(N)n(Cc2ccc(F)cc2)c1=O [2.13] |
| ≥ 30 µM | CCn1c(=O)c(C(=O)CN2CCCC[C@@H]2C(N)=O)c(N)n(Cc2ccc(OC(C)C)cc2)c1=O [2.14] |
| ≥ 30 µM | CCn1c(=O)c(C(=O)CN2CCCC[C@@H]2C(N)=O)c(N)n(Cc2nccn2C)c1=O [2.15] |
| ≥ 30 µM | CCn1c(=O)c(C(=O)CN2CCCC[C@@H]2C(N)=O)c(N)n(-c2cccc(F)c2)c1=O [2.16] |
| ≥ 30 µM | CCn1c(=O)c(C(=O)CN2CCCC[C@@H]2C(N)=O)c(N)n(Cc2ccc(F)c(Cl)c2)c1=O [2.17] |
| ≥ 30 µM | CCn1c(=O)c(C(=O)CN2CCCC[C@@H]2C(N)=O)c(N)n(Cc2ccc(Cl)c(F)c2)c1=O [2.18] |
| ≥ 30 µM | CCn1c(=O)c(C(=O)CN(C(C)C)C(C)(C)C(N)=O)c(N)n(Cc2ccc(F)cc2)c1=O [2.19] |
| ≥ 30 µM | CCn1c(=O)c(C(=O)CN2CCCC[C@@H]2C(N)=O)c(N)n(Cc2ccc(C#N)c(F)c2)c1=O [2.20] |
| ≥ 30 µM | CCn1c(=O)c(C(=O)CN2CCCC[C@@H]2C(N)=O)c(N)n(Cc2ccc(F)nc2)c1=O [2.21] |
| ≥ 30 µM | CCn1c(=O)c(C(=O)CN2CCCC[C@@H]2C(N)=O)c(N)n(Cc2ccc(F)cn2)c1=O [2.22] |
| ≥ 30 µM | CCn1c(=O)c(C(=O)CN2CCCC[C@@H]2C(N)=O)c(N)n(Cc2ccc(C#N)cc2F)c1=O [2.23] |
| ≥ 30 µM | CCn1c(=O)c(C(=O)CN2CCCC[C@@H]2C(N)=O)c(N)n(Cc2ccc(C(F)(F)F)nc2)c1=O [2.24] |

Each compound was assayed on W134X-CF#14 FRT (assay: Read-through of a premature termination codon, W134X-CF#14 FRT data, with G418). Conditions: in presence of G418.
Format: cell-based
Description: as §1

| EC50 [µM] | Compound |
| --- | --- |
| 109 | CCn1c(=O)c(C(=O)CN(C)Cc2ccc(C(=O)NC)cc2)c(N)n(Cc2ccccc2)c1=O [1.2] |
